From ChEMBL document CHEMBL5465560, “Selectivity Literature for EUbOPEN Chemogenomic Library” (2024)

Tests used:
[1] = molecular target: Macrophage colony-stimulating factor 1 receptor (Homo sapiens) (UniProt P07333); experiment: Selectivity interaction (KinomeScan (DiscoverX)) EUB0001079a CSF1R; conditions: at 1 µM
[2] = molecular target: T1, Serine/threonine-protein kinase TAO1 (Homo sapiens) (UniProt Q7L7X3); experiment: Selectivity interaction (LanthaScreen Eu Kinase Binding Assay) EUB0001632a TAOK1; conditions: at 10 µM
T1 sequence (whole entry): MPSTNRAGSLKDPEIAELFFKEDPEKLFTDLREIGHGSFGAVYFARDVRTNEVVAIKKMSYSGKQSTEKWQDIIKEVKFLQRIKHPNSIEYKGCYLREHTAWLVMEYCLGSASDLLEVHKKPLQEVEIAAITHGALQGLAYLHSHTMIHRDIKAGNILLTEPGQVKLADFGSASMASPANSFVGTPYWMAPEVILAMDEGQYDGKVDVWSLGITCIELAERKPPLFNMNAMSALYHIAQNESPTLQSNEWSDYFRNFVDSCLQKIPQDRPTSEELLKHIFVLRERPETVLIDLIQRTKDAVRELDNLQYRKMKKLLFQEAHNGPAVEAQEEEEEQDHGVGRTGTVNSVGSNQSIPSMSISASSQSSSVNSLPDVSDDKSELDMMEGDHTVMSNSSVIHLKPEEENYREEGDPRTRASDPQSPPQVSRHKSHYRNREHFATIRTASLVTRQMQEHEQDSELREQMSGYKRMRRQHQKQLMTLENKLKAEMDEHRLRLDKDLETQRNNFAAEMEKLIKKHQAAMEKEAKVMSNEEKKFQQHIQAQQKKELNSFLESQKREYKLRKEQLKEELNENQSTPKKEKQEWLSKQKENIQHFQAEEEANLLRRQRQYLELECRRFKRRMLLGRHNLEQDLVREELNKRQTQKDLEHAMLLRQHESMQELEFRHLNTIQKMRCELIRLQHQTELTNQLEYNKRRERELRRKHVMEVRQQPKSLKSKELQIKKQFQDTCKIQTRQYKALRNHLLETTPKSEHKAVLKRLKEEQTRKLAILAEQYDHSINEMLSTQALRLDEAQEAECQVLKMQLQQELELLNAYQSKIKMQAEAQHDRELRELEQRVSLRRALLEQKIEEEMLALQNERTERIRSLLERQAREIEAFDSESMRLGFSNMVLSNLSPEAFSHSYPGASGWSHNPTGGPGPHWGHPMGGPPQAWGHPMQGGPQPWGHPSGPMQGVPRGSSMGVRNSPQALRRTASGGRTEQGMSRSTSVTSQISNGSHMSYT

[3] = molecular target: Protein kinase C delta type (Homo sapiens) (UniProt Q05655); conditions: at 10 µM
Chain of Protein kinase C delta type (Homo sapiens) (Q05655 whole entry, looked up): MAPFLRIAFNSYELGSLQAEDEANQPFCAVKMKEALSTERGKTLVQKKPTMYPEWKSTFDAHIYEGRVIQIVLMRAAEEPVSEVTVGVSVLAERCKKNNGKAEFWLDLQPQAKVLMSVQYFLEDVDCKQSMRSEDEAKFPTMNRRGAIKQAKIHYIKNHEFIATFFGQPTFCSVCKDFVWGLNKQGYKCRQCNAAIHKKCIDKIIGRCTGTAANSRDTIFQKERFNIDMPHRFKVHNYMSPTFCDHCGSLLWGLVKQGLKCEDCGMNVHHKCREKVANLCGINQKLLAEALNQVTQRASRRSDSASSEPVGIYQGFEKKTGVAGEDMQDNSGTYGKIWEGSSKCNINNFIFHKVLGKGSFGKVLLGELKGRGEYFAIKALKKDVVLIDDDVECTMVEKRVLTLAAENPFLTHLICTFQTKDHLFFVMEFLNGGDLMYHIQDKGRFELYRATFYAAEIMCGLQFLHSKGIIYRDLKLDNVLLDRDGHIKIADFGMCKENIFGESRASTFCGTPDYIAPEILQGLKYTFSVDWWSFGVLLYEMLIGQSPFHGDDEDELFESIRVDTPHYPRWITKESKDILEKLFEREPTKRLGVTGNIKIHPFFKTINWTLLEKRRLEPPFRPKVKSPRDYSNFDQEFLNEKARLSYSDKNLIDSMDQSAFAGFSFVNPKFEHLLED

[4] = molecular target: T2, Histone-lysine N-methyltransferase SMYD3 (Homo sapiens) (UniProt Q9H7B4); experiment: Selectivity interaction (Methyltransferase screen (radiometric assays, panel of 8 PRMTs, 21 protein lysine methyltransferases, 3 DNA methyltransferases, and one RNA methyltransferase)) EUB0000271b SMYD3
T2 sequence (whole entry): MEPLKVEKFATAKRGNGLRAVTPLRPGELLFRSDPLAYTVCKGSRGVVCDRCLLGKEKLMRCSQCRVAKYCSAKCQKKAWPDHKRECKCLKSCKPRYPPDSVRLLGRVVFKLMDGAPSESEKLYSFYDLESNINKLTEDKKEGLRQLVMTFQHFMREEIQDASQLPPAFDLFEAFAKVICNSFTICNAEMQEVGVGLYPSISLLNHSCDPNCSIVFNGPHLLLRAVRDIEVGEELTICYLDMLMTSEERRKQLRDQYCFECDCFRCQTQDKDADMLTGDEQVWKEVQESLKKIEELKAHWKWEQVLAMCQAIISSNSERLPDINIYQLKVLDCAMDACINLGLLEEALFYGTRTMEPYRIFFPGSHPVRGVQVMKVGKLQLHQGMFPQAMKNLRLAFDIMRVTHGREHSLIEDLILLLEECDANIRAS

[5] = molecular target: T3, Serine/threonine-protein kinase ULK2 (Homo sapiens) (UniProt Q8IYT8); experiment: Selectivity interaction (KinomeScan (DiscoverX)) EUB0001619a ULK2; conditions: at 1 µM
T3 sequence (whole entry): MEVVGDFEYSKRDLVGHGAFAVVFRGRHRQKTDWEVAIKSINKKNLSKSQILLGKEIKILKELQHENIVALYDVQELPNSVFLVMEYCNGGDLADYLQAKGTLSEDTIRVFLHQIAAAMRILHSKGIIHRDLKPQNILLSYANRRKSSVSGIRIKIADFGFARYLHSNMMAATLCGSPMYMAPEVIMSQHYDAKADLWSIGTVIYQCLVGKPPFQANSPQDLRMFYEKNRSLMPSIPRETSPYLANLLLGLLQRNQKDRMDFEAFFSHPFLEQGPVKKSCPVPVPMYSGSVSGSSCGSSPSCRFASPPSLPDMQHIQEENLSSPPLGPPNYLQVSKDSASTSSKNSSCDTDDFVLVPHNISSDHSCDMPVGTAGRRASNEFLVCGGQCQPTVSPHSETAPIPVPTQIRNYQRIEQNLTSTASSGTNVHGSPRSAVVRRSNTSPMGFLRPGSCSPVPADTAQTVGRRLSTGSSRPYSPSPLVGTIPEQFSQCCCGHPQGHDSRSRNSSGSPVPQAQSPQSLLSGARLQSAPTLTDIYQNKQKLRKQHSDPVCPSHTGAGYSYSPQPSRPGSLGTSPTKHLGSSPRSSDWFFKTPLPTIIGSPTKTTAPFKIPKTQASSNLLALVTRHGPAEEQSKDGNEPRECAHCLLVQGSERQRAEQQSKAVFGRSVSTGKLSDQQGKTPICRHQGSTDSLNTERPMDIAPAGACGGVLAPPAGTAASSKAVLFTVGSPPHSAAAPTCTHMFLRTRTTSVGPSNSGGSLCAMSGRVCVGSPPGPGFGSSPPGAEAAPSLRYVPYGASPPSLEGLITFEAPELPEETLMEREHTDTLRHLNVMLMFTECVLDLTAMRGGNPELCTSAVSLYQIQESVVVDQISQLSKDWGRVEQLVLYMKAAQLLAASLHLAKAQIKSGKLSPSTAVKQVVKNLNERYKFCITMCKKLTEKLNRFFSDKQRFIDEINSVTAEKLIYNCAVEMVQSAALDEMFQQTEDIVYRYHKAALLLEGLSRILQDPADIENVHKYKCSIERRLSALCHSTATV

[6] = molecular target: Tyrosine-protein kinase HCK (Homo sapiens) (UniProt P08631); experiment: Selectivity interaction (ActivX KiNativ screen (kinase selectivity in THP-1 cell lysates)) EUB0000639a HCK; format: subcellular; conditions: lysate, at 5 µM
Chain of Tyrosine-protein kinase HCK (Homo sapiens) (P08631 2-526 limits assumed): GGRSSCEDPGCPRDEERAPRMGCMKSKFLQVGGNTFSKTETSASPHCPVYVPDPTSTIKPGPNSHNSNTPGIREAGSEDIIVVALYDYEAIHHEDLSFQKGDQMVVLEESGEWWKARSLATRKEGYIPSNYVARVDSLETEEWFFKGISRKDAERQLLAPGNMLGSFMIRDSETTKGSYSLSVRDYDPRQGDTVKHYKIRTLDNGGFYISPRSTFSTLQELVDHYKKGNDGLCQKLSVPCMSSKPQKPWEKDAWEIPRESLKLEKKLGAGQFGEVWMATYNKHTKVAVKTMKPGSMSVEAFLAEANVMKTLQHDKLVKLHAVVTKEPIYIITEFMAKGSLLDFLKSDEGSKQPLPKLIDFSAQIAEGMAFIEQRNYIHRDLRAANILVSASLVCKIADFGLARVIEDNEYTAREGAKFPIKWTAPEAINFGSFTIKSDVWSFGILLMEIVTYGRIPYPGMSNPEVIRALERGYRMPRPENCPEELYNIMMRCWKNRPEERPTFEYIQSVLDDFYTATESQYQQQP

[7] = molecular target: Serine/threonine-protein kinase WNK3 (Homo sapiens) (UniProt Q9BYP7); experiment: Selectivity interaction (Ambit KINOMEscan and KiNATiv profiling in Jurkat cells) EUB0000090b WNK3; format: cell-based; conditions: at 1 µM
Chain of Serine/threonine-protein kinase WNK3 (Homo sapiens) (Q9BYP7 whole entry): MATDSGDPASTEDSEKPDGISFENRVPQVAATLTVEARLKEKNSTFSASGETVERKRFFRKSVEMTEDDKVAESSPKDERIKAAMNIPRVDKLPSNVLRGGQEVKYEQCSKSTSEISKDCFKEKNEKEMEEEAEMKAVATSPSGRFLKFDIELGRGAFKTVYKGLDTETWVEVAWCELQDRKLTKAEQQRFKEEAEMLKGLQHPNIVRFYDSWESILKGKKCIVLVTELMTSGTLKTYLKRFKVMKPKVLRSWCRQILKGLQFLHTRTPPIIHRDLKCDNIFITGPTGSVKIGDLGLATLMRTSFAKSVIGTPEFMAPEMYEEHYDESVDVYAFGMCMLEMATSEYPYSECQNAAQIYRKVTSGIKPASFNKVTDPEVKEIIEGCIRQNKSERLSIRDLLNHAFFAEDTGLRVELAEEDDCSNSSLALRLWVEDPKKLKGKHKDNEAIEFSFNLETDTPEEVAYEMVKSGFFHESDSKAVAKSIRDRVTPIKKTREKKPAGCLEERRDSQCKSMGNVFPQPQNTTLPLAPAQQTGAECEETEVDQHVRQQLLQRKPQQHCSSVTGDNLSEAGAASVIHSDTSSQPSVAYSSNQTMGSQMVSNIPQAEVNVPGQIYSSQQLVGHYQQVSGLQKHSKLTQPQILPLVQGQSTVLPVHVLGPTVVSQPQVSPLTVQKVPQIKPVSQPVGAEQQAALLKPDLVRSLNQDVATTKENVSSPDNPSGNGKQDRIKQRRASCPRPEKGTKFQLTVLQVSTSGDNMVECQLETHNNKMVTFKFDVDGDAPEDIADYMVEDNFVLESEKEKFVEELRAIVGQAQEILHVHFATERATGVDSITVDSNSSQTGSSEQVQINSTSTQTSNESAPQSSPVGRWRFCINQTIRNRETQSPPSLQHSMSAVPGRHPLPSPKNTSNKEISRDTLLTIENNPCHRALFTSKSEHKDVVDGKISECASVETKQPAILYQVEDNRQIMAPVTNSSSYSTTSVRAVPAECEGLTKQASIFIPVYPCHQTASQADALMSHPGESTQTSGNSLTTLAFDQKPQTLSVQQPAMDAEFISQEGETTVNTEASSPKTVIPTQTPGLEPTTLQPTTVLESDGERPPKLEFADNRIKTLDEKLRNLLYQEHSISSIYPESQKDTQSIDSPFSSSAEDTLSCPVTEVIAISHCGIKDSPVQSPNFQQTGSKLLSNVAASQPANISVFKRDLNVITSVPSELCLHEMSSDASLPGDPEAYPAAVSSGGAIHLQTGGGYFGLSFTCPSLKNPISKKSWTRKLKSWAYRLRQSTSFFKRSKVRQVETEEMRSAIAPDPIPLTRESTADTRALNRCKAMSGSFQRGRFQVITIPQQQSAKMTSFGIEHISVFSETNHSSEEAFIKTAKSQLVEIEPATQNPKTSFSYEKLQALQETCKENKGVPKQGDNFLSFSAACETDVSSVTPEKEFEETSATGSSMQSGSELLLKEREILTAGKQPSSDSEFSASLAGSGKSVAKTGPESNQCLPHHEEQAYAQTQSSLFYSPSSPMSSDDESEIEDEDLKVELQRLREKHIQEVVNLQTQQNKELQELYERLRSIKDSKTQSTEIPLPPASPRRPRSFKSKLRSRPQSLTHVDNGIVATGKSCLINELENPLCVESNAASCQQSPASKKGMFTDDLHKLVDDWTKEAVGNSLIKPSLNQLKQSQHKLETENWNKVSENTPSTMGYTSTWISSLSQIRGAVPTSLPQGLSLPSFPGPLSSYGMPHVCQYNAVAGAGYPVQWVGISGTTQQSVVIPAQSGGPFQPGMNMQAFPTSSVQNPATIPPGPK

[8] = molecular target: Tyrosine-protein kinase ABL2 (Homo sapiens, UniProt P42684); experiment: Selectivity interaction (Ambit KINOMEscan and KiNATiv profiling in Jurkat cells) EUB0000090b ABL2; format: cell-based; conditions: at 1 µM
Chain of Tyrosine-protein kinase ABL2 (P42684 whole entry): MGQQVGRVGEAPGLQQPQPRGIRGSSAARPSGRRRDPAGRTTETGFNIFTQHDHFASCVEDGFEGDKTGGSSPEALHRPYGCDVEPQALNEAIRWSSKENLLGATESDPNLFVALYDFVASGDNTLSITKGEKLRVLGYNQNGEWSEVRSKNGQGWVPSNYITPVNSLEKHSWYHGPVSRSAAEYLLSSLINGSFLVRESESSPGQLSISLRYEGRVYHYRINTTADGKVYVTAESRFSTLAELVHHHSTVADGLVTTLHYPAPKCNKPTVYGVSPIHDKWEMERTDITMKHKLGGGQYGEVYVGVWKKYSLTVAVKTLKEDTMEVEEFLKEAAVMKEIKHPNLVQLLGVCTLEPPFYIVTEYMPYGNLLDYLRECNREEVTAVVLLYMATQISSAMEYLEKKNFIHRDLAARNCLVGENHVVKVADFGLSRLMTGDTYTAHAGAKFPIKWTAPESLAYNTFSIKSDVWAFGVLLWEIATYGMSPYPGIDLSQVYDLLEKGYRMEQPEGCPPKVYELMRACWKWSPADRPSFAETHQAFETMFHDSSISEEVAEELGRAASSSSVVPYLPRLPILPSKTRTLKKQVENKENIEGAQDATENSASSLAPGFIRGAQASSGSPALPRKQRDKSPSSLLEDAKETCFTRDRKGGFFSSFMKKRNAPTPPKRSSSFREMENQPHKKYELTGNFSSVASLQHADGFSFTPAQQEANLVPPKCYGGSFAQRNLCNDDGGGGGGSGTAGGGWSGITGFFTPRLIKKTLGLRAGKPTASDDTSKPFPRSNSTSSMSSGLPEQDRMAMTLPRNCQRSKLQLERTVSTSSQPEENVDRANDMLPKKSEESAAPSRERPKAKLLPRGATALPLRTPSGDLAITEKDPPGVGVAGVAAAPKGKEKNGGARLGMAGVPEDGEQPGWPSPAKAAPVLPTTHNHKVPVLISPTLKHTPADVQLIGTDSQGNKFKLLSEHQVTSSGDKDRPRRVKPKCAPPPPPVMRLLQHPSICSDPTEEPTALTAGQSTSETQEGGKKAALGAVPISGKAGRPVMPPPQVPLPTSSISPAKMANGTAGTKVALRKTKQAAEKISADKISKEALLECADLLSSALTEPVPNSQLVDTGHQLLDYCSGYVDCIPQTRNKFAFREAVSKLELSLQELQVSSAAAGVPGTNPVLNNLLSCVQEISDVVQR

Compound: Nc1cnc(N2CCc3cc(S(=O)(=O)Nc4c(F)cc(Cl)cc4F)cc(N4CCCC4=O)c32)nc1 [TP-020n]
- % of control [1]: 100%

Compound: Cn1cc(-n2cnc3c(NCc4nc5cc(Cl)c(Cl)cc5[nH]4)nc(N4CCOCC4)nc32)cn1
- % of inhibition [2]: 31.8%

Compound: Cc1cc([C@@H](C)Nc2ccccc2C(=O)O)c2nc(N3CCOCC3)cc(=O)n2c1 [AZD-6482]
- % of control [3]: 82%

Compound: Cc1cc(C)cc([C@@H]2c3cc(C)ccc3NC(=O)CN2C(=O)c2ccc(Br)s2)c1
- % of activity ([4]; at 1 µM): 100%
- % of activity ([4]; at 10 µM): 98.3%

Compound: N#Cc1cccc(-c2c[nH]c3ncnc(N4CCOCC4)c23)c1
- % of control [5]: 69%

Compound: CC[C@@H]1[C@H](F)C(=O)N[C@@H]1COc1nccc2cc(C(N)=O)c(OC)cc12 [ZIMLOVISERTIB]
- % of inhibition [6]: -20.3%

Compound: CN(C)C/C=C/C(=O)Nc1ccc(C(=O)N2CCCC(Nc3ncc(Cl)c(-c4c[nH]c5ccccc45)n3)C2)cc1 (centres undefined)
- % of control [7]: 89%
- % of control [8]: 92%
